The test system of one data set is A549 cells. As to the kind of experiment: Cell survival rate (MTT) in A549 cells. The data set is classed as cell-based. Conditions: up to a concentration of 25 µM, 24 and 48 hours, FIGS. 1A, 1B. As for the experimental part:
(§1) To screen angiotensin II receptor blockers for use in combinations of angiotensin II receptor blockers (ARBs) and sodium-glucose cotransporter-2 (SGLT-2) inhibitors for the treatment of heart failure, cell survival rates were evaluated.
(§2) Specifically, A549 cells were obtained from the Korean Cell Line Bank (KCLB) and subcultured using a RPMI-1640 medium supplemented with 10% fetal bovine serum (FBS) and 1% Penicillin, and MDCK cells were obtained from ATCC and subcultured using a DMEM medium supplemented with 10% FBS. 200 µl each of the A549 cells and MDCK cells incubated in an incubator under 37°C and 5% CO2 conditions were dispensed at 2 × 10^4 cells/well in a 96-well plate, and then a control group was treated with 100 µl of the medium, and experimental groups were treated with 1.25, 25, 50, and 100 µM of Telmisartan or olmesartan, respectively. After 24 and 48 hours, all of the wells were treated with 50 µl each of a 2 mg/ml MTT reagent and incubated in an incubator for 3 hours, and then each well was added with […] of DMSO, wrapped in foil, stirred for 30 minutes at room temperature, and the absorbance was measured at 570 nm to obtain the cell survival rate.

Data set [1] in a line: Single oral administration pharmacokinetic test. Conditions: beagle dogs.
Method: The control and test drugs were administered orally once by a single tablet, and were crossed over (4 × 4 cross over) four times at one-week intervals. Fasting was performed from 5 to 6 pm the day before administration. The control and test drugs were administered into the tongue root, and then administered with approximately 15 ml of water, and feed was provided approximately 4 hours after administration. Blood was collected at 0 (blank), 0.25, 0.5, 0.75, 1, 1.5, 2, 3, 4, 5, 6, 8, 12, and 24 hours (14 times) after administration of the control and test drugs, and left by a 7-day drug-free period.
Data set [2] relates to angiotensin converting enzyme (ACE). Briefly: ACE mRNA expression (RT-PCR) in LPS inflammation-induced H9c2 cells. Type of data set: cell-based, rat. Here is the method:
Specifically, H9c2 cells as a […] cardiac cell line were obtained and used from the Korea Cell Line Bank (KCLB 40071, Korea) and incubated and prepared in a DMEM medium supplemented with 10% FBS and 1% antibiotic-antimycotic (10 units/ml penicillin, 100 µg/ml streptomycin, 0.25 µg/ml amphotericin) under 37°C and 5% CO2 conditions.
To confirm the effect on ACE activity, the prepared H9c2 cells were treated with 2.5 µg/ml of Lipopolysaccharide (LPS), which was 2.5 times more than the amount used in conventional inflammation-related experiments, to induce inflammation, thereby setting the optimized conditions for confirming ACE expression. LPS inflammation-induced H9c2 cells were treated with 10, 25, and 50 µM Telmisartan or olmesartan, respectively, and the H9c2 cells were harvested for ELISA assay. The harvested cells were treated with 1 ml of an RIPA buffer and stirred at 4°C for 30 minutes to extract proteins. Thereafter, the proteins were centrifuged at 4°C and 10,000 rpm for 20 minutes, and the supernatant was transferred to a sterilized tube and stored at - 80°C for use in the ELISA assay.
Specifically, LPS inflammation-induced H9c2 cells in Experimental Example 1-2 were treated with 10 or 25 µM Telmisartan and 10 or 50 µM olmesartan, and then treated with 200 µl of chloroform together with 1 ml of TRIZol (Sigma, USA), gently mixed, and separated for 10 minutes, and then centrifuged at 4°C and 10,000 rpm for 10 minutes. After centrifugation, only the supernatant from the tube was taken and transferred to a new sterile tube, and the supernatant was treated with 500 µl of isopropanol to precipitate RNA. The precipitated RNA was centrifuged at 4°C, 10,000 rpm for 10 minutes, and then the supernatant except for the pellets in the tube was fully removed, and the RNA pellets were treated with 500 µl of 75% ethyl alcohol and thoroughly washed. The washed pellets were centrifuged at 4°C, 10,000 rpm for 5 minutes, and then the supernatant except the pellets was fully removed. The tube containing the pellets from which the supernatant had been cleanly removed was treated with diethyl pyrocarbonate (DEPC)-water and stored at - 80°C for use in an RT-PCR experiment.
RT-PCR was performed by synthesizing cDNA from mRNA using an RT-PCR kit containing DNA polymerase, buffer, dNTP, and tracking dye, and then using ACE primers in Table 1 under the conditions in Table 2 for 35 cycles. The PCR products were electrophoresed on a […] agarose gel, identified using a UV transilluminator, and expressed as normalized to GAPDH for quantitative comparison.
In order to confirm the effect of each combination or single substance on the mRNA expression of ACE, the experimental samples in Table 3 were treated to H9c2 cells induced with LPS inflammation in Experimental Example 1-2, respectively, and then the mRNA expression of ACE was evaluated in the same manner as in Experimental Example 1-3.

For data set [3] the test system is unchanged. As to the kind of experiment: ACE ELISA assay (ACE protein expression) in LPS inflammation-induced H9c2 cells. The data set is classed as cell-based, rat. Particulars: FIG. 3.
Method: Specifically, H9c2 cells as a human cardiac cell line were obtained and used from the Korea Cell Line Bank (KCLB 40071, Korea) and incubated and prepared in a DMEM medium supplemented with 10% FBS and 1% antibiotic-antimycotic (10 units/ml penicillin, 100 µg/ml streptomycin, 0.25 µg/ml amphotericin) under 37°C and 5% CO2 conditions.
To perform the ELISA assay, 10,000 pg/ml, 5,000 pg/ml, 2,500 pg/ml, 1,250 pg/ml, 625 pg/ml, 312 pg/ml, and 156 pg/ml of Human ACE standard solutions and a standard dilution buffer were added by 0.1 ml to each well of an antibody-coated 96-well plate. […] Thereafter, each well was added with 90 µl of the prepared TMB solution, incubated for 20 to 25 minutes in a dark room at 37°C, and then treated with each 0.1 ml of the prepared TMB stop solution to stop an ACE ELISA reaction, and the OD absorbance at 450 nm was read in a microplate reader within 30 minutes, and the relative OD450 was derived using the following Equation. […]
For a further data set, the system named is MDCK cells. As to the kind of experiment: Cell survival rate (MTT) in MDCK cells. The data set is classed as cell-based. Conditions: up to a concentration of 25 µM, 24 and 48 hours, FIGS. 2A, 2B. Here is the method: as §1, §2
Data set [4] is described as follows: 4-week repeated oral administration toxicity. Type of data set: in vivo, Sprague-Dawley rats. Conditions: oral daily for 4 weeks. Here is the method:
During the test, general symptom observation, blood test, and body weight measurement were performed, and after the observation period ended, the rats were euthanized and autopsied.

For data set [5] the following is noted: in the presence of Dapagliflozin; 80 mg / 10 mg; 90% confidence interval 0.99 to 1.43.

`CCCc1nc2c(C)cc(-c3nc4ccccc4n3C)cc2n1Cc1ccc(-c2ccccc2C(=O)O)cc1` [Telmisartan, 4'-[(1,4'-dimethyl-2'-propyl[2,6'-bi-1H-benzimidazol]-1'-yl)methyl][1,1'-biphenyl]-2-carboxylic acid]: the cell survival rate entry with A549 cells and with MDCK cells was “no effect on cell survival rate” throughout. The “difference in AUCall between groups in the single administration group and the combined administration group” value in data set [1] stood at 1.0 times. The mRNA expression result in data set [2] (25 µM treatment group, FIG. 4) is “mostly inhibited”. For the same compound, in data set [2] (all treatment concentrations, FIG. 4), the “mRNA expression inhibition effect” value is “superior to that of olmesartan”. Besides, in data set [2] (alone administration, low-concentration groups of 2.5 µM to 10 µM, FIGS. 5 and 6), the “mRNA expression of ACE” value was “did not decrease to a normal level”. In addition, the “ACE expression inhibition effect” value in data set [3] (25 µM treatment group) is recorded as “the best”; in data set [3] (all treatment concentrations (10, 25, 50 µM)) it was “superior to that of olmesartan”. Also, in data set [4], the body weight measurement result is listed as “a tendency for inhibiting weight gain”. Besides, the “Cmax of Telmisartan (T/R ratio)” value in data set [5] is reported as “approximately 1.19 times”.
